From patent US12084430B2, “Tricyclic urea compounds as JAK2 V617F inhibitors” (Incyte Corporation, priority 2022, dated 2024) come the findings set out here.

Assay [1] has as its system KIT. Nature of the assay: KIT enzymatic assay. Format: biochemical. On the procedure:
(§1) Example D. KIT Enzymatic Assay
(§2) The kinase assays were carried out at room temperature in assay buffer (HEPES 50 mM, pH 7.0, NaN3 0.02%, BSA 0.01%, Orthovanadate 0.1 mM, DTT 1 mM, MgCl2 10 mM) in a final volume of 10 μL. Testing compounds were prepared by serial dilution in DMSO and transferred to the plate wells by ECHO liquid handler (Labcyte) with 0.5% DMSO in the final assay. […]. Reactions were initiated by the addition of 5 μL ATP in assay buffer. The final 10 μL kinase reaction consists of 0.12 nM KIT, 1 mM ATP, 500 nM TK Substrate-biotin and SEB reagent 62.5 nM in assay buffer. […] The plates were then sealed and centrifuged at 1800 rpm for 2 minutes. After 60 minutes incubation at room temperature, the product activity was determined by measuring the fluorescence at 620 nm and 665 nm on Pherastar microplate reader (BMG Labtech). A ratio is calculated (665/620 nm) for each well. Wells with DMSO only were served as the positive controls and wells containing no ATP were used as negative controls. IC50 determination was performed by fitting the curve of percent control activity versus the log of the compound concentration using the GraphPad Prism 7.0 software.

Assay [2] deals with KIT (Homo sapiens, UniProt P10721). As to the kind of experiment: KIT enzymatic assay. Format: biochemical. The settings on record: 1 mM ATP. On the procedure:
as §1, §2

Another assay deals with FLT3. Nature of the assay: FLT3 enzymatic assay. The class given is biochemical. As to the method:
Example C. FLT3 Enzymatic Assay
as §2, with “0.011” for “0.12”, “FLT3,” for “KIT,”

Assay [3] has as its target TRKA (Homo sapiens, UniProt P04629). As to the kind of experiment: TRKA enzymatic assay. The class given is biochemical. The settings on record: 1 mM ATP. As to the method: (§3) Example I. TRKA Enzymatic Assay
(§4) The kinase assays were carried out at 24° C. temperature in assay buffer (HEPES 50 mM, pH 7.0, NaN3 0.02%, BSA 0.01%, Orthovanadate 0.1 mM, DTT 1 mM, MgCl2 10 mM) in a final volume of 10 μL. Testing compounds were prepared by serial dilution in DMSO and transferred to the plate wells by ECHO liquid handler (Labcyte) with 0.5% DMSO in the final assay. […]. Reactions were initiated by the addition of 5 μL ATP in assay buffer. The final 10 μL kinase reaction consists of 0.58 nM TRKA, 1 mM ATP, 500 nM TK Substrate-biotin and SEB reagent 62.5 nM in assay buffer. […] After 60 minutes incubation at room temperature, the product activity was determined by measuring the fluorescence at 620 nm and 665 nm on Pherastar microplate reader (BMG Labtech). A ratio is calculated (665/620 nm) for each well. Wells with DMSO only were served as the positive controls and wells containing no ATP were used as negative controls. IC50 determination was performed by fitting the curve of percent control activity versus the log of the compound concentration using the Gene data.

The test system of assay [4] is TRKA. As to the kind of experiment: TRKA enzymatic assay. Format: biochemical. On the procedure: as §3, §4
For assay [5], the target named is T1, pseudo-kinase domain (JH2) of human V617F mutant JAK2 (Homo sapiens, UniProt O60674, F794H/V617F/W659A/W777A).
T1 construct: pseudo-kinase domain (JH2, amino-acids 536-812 with 3 surface mutations W659A, W777A, F794H); His (C); purchased BPS Bioscience 79498; host or cells: baculovirus expression system
T1 sequence (O60674 536-812 V617F/W659A/W777A/F794H): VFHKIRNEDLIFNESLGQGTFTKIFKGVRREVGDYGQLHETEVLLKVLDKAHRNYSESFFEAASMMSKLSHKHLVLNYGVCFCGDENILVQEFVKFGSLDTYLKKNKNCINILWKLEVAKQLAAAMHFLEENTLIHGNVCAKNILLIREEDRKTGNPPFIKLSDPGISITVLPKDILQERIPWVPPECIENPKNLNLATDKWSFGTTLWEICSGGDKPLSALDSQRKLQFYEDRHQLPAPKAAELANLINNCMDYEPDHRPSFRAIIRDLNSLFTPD
Nature of the assay: JAK2 LanthaScreen JH2-V617F binding assay. The settings on record: read-out: JH2 V617F Bind IC50. On the procedure:
Example B. JAK2 LanthaScreen JH2-V617F Binding Assay
JAK2 JH2-V617F binding assay utilizes pseudo-kinase domain (JH2, amino-acids 536-812 with 3 surface mutations W659A, W777A, F794H) of human V617F mutant JAK2 expressed as C-terminal His-Avi-tagged, biotinylated protein in a baculovirus expression system (BPS Bioscience, Catalog #79498). The assay was conducted in black 384-well polystyrene plates in a final reaction volume of 20 μL. JAK2 JH2-V617F (0.26 nM) was incubated with compounds (100 nL serially diluted in DMSO) in the presence of 50 nM Fluorescent JAK2-JH2 Tracer (MedChem Express Catalog #HY-102055) and 0.25 nM Streptavidin-Tb cryptate (Cisbio Part #610SATLB) in assay buffer (50 mM Tris, pH=7.5, 10 mM MgCl2, 0.01% Brij-35, 0.1% BSA, 1 mM EGTA, 5% Glycerol and 5 mM DTT). Non-specific binding was accessed in the presence of 2 mM ATP. After incubation for 1 hour at 25° C., LanthaScreen signals were read on a PHERAstar FS plate reader (BMG LABTECH). Data was analyzed with IDBS XLfit and GraphPad Prism 5.0 software using a four parameter dose response curve to determine IC50 for each compound.
(In TR-FRET formats the signal depends on donor and acceptor labels being close together.)

Molecules are shown by their SMILES. Read-outs that look alike come from different tables or passages of the source.

Sequence of TRKA (Homo sapiens, UniProt P04629) (P04629 33-796, species assumed): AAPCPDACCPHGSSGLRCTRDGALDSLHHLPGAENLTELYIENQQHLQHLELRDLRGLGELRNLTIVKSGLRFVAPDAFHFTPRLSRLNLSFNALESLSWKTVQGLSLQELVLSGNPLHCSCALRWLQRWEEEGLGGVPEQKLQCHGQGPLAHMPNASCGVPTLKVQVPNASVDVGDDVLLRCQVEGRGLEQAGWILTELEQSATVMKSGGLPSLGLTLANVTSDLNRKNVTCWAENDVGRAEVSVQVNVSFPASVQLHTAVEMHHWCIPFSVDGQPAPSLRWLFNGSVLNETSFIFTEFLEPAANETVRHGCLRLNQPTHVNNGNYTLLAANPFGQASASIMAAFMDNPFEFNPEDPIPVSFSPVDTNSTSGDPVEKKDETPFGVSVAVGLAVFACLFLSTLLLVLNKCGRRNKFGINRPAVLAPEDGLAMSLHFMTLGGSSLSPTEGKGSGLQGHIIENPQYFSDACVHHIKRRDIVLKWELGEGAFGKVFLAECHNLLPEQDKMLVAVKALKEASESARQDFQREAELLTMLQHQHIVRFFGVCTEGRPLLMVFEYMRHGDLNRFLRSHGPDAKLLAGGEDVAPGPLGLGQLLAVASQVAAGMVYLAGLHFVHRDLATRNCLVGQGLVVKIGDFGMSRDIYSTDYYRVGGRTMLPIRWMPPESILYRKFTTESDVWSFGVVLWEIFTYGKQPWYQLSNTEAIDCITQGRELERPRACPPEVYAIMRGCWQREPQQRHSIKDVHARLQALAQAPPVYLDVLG
Sequence of KIT (Homo sapiens, UniProt P10721) (P10721 26-976, species assumed): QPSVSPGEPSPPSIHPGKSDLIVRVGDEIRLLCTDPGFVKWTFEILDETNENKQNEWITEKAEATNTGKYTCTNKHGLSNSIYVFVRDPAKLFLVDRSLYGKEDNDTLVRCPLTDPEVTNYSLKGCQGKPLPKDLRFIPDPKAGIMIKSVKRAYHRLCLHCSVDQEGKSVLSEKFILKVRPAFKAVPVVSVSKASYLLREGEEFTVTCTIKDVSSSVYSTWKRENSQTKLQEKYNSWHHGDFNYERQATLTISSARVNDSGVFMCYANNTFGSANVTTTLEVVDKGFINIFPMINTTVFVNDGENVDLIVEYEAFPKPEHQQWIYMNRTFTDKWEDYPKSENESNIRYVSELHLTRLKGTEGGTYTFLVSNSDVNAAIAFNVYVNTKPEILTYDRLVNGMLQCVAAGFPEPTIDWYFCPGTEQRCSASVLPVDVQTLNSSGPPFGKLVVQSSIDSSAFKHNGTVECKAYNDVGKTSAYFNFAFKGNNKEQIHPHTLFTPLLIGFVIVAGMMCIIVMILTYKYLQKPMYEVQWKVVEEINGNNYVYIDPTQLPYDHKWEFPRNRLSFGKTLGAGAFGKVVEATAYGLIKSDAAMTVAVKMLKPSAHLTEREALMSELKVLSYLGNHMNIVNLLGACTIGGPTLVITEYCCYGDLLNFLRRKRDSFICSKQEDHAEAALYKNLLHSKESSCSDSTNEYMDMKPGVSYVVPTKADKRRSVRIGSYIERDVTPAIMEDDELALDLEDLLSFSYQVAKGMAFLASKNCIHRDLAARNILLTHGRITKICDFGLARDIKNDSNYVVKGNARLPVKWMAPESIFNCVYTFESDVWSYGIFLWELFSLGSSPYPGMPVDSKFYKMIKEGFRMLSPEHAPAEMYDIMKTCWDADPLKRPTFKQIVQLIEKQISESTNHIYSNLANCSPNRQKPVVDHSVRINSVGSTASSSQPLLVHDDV

As usually defined, the IC50 is the midpoint of a concentration-inhibition curve. `[2H]C([2H])([2H])n1cc(-c2[nH]c3ncc4c(c3c2-c2ccc3c(cnn3C([2H])([2H])[2H])c2)n([C@@H]2CC[C@@H](NC(=O)OC)C2)c(=O)n4C([2H])([2H])[2H])c(F)n1` [Example 6, Methyl ((1R,3R)-3-(7-(3-fluoro-1-(methyl-d3)-1H-pyrazol-4-yl)-3-(methyl-d3)-8-(1-(methyl-d3)-1H-indazol-5-yl)-2-oxo-3,6-dihydroimidazo[4,5-d]pyrrolo[2,3-b]pyridin-1(2H)-yl)cyclopentyl)carbamate]: in the assay with KIT [1], the “Selectivity KIT/JH2 V617F” value is given as “**** (selectivity of >1750-fold to ≤5000-fold)”. In addition, the IC50 against KIT [2] is 250 to 1250 nM; at TRKA [3] it was more than 2500 nM; in assay [5] (Table A) it was not above 10 nM; in assay [5] (Table C) it was not above 10 nM. The “Selectivity FLT3/JH2 V617F” value in the assay on FLT3 was “***** (selectivity of >5000-fold to ≤12500-fold)”. Also, in the assay with TRKA [4], the “Selectivity TRKA/JH2 V617F” value is on record as “****** (selectivity of >12500-fold)”.
Regarding `[2H]C([2H])([2H])n1cc(-c2[nH]c3ncc4c(c3c2-c2ccc(F)cc2)n([C@@H]2CC[C@@H](NC(=O)OC)C2)c(=O)n4C([2H])([2H])[2H])c(F)n1` [Example 7, Methyl ((1R,3R)-3-(7-(3-fluoro-1-(methyl-d3)-1H-pyrazol-4-yl)-8-(4-fluorophenyl)-3-(methyl-d3)-2-oxo-3,6-dihydroimidazo[4,5-d]pyrrolo[2,3-b]pyridin-1(2H)-yl)cyclopentyl)carbamate], the “Selectivity KIT/JH2 V617F” value in the assay with KIT [1] is recorded as “** (selectivity of >500-fold to ≤1500-fold)”. For the same molecule, the IC50 at KIT [2] was 250 to 1250 nM; at TRKA [3], more than 2500 nM; in assay [5] (Table A), not above 10 nM; in assay [5] (Table C) it was not above 10 nM. For the same molecule, in the assay on FLT3, the “Selectivity FLT3/JH2 V617F” value is recorded as “**** (selectivity of >1750-fold to ≤5000-fold)”. Also, the “Selectivity TRKA/JH2 V617F” value in the assay on TRKA [4] is recorded as “***** (selectivity of >5000-fold to ≤12500-fold)”.
`[2H]C([2H])([2H])n1cc(-c2[nH]c3ncc4c(c3c2-c2ccc3c(c2)COC3(C)C)n([C@@H]2CC[C@@H](NC(=O)OC)C2)c(=O)n4C([2H])([2H])[2H])c(F)n1` [Example 8, Methyl ((1R,3R)-3-(8-(1,1-dimethyl-1,3-dihydroisobenzofuran-5-yl)-7-(3-fluoro-1-(methyl-d3)-1H-pyrazol-4-yl)-3-(methyl-d3)-2-oxo-3,6-dihydroimidazo[4,5-d]pyrrolo[2,3-b]pyridin-1(2H)-yl)cyclopentyl)carbamate]: in the assay with KIT [1], the “Selectivity KIT/JH2 V617F” value is “****** (selectivity of >12500-fold)”. In addition, the half-maximal inhibitory concentration (IC50) against KIT [2] was 1250 to 2500 nM; at TRKA [3], more than 2500 nM; in assay [5] (Table A), not above 10 nM; in assay [5] (Table C), not above 10 nM. Moreover, in the assay with FLT3, the “Selectivity FLT3/JH2 V617F” value is on record as “****** (selectivity of >12500-fold)”. Also, the “Selectivity TRKA/JH2 V617F” value in the assay on TRKA [4] was “****** (selectivity of >12500-fold)”.
As to `[2H]C([2H])([2H])Oc1ccc(-c2c(-c3cn(C([2H])([2H])[2H])nc3F)[nH]c3ncc4c(c23)n([C@@H]2CC[C@@H](NC(=O)OC)C2)c(=O)n4C([2H])([2H])[2H])cc1` [Example 9, Methyl ((1R,3R)-3-(7-(3-fluoro-1-(methyl-d3)-1H-pyrazol-4-yl)-8-(4-(methoxy-d3)phenyl)-3-(methyl-d3)-2-oxo-3,6-dihydroimidazo[4,5-d]pyrrolo[2,3-b]pyridin-1(2H)-yl)cyclopentyl)carbamate], in the assay on KIT [1], the “Selectivity KIT/JH2 V617F” value is “*** (selectivity of >1500-fold to ≤1750-fold)”. For the same molecule, the IC50 on KIT [2] was 250 to 1250 nM; on TRKA [3], 1250 to 2500 nM; in assay [5] (Table A), not above 10 nM; in assay [5] (Table C) it was not above 10 nM. Besides, the “Selectivity FLT3/JH2 V617F” value with FLT3 is on record as “***** (selectivity of >5000-fold to ≤12500-fold)”. Moreover, the “Selectivity TRKA/JH2 V617F” value with TRKA [4] is on record as “***** (selectivity of >5000-fold to ≤12500-fold)”.
On to `[2H]C([2H])([2H])n1cc(-c2[nH]c3ncc4c(c3c2-c2ccc(C(C)(C)O)cc2)n([C@@H]2CC[C@@H](NC(=O)OC)C2)c(=O)n4C([2H])([2H])[2H])c(F)n1` [Example 10, Methyl ((1R,3R)-3-(7-(3-fluoro-1-(methyl-d3)-1H-pyrazol-4-yl)-8-(4-(2-hydroxypropan-2-yl)phenyl)-3-(methyl-d3)-2-oxo-3,6-dihydroimidazo[4,5-d]pyrrolo[2,3-b]pyridin-1(2H)-yl)cyclopentyl)carbamate], for which, in the assay with KIT [1], the “Selectivity KIT/JH2 V617F” value is listed as “*** (selectivity of >1500-fold to ≤1750-fold)”. In addition, the IC50 against KIT [2] was 250 to 1250 nM; on TRKA [3], more than 2500 nM; in assay [5] (Table A), not above 10 nM; in assay [5] (Table C), not above 10 nM. For the same molecule, in the assay on FLT3, the “Selectivity FLT3/JH2 V617F” value was “**** (selectivity of >1750-fold to ≤5000-fold)”. Moreover, the “Selectivity TRKA/JH2 V617F” value in the assay with TRKA [4] was “****** (selectivity of >12500-fold)”.
As for `[2H]C([2H])([2H])n1cc(-c2[nH]c3ncc4c(c3c2-c2ccc3c(c2)COC3(C)C)n([C@@H]2CC[C@@H](NC(=O)OC)C2)c(=O)n4C)c(F)n1` [Example 11, Methyl ((1R,3R)-3-(8-(1,1-dimethyl-1,3-dihydroisobenzofuran-5-yl)-7-(3-fluoro-1-(methyl-d3)-1H-pyrazol-4-yl)-3-methyl-2-oxo-3,6-dihydroimidazo[4,5-d]pyrrolo[2,3-b]pyridin-1(2H)-yl)cyclopentyl)carbamate], the “Selectivity KIT/JH2 V617F” value in the assay with KIT [1] is “****** (selectivity of >12500-fold)”. The IC50 against KIT [2] is more than 2500 nM; against TRKA [3], more than 2500 nM; in assay [5] (Table A), not above 10 nM; in assay [5] (Table C), not above 10 nM. Moreover, the “Selectivity FLT3/JH2 V617F” value in the assay with FLT3 is “****** (selectivity of >12500-fold)”. Further, the “Selectivity TRKA/JH2 V617F” value with TRKA [4] is listed as “****** (selectivity of >12500-fold)”.
With `[2H]C([2H])([2H])n1c(=O)n([C@@H]2CC[C@@H](NC(=O)OC)C2)c2c3c(-c4ccc5c(c4)COC5(C)C)c(-c4cn(CC(F)F)nc4F)[nH]c3ncc21` [Example 12, Methyl ((1R,3R)-3-(7-(1-(2,2-difluoroethyl)-3-fluoro-1H-pyrazol-4-yl)-8-(1,1-dimethyl-1,3-dihydroisobenzofuran-5-yl)-3-(methyl-d3)-2-oxo-3,6-dihydroimidazo[4,5-d]pyrrolo[2,3-b]pyridin-1(2H)-yl)cyclopentyl)carbamate], the “Selectivity KIT/JH2 V617F” value with KIT [1] is listed as “****** (selectivity of >12500-fold)”. Also, the half-maximal inhibitory concentration (IC50) at KIT [2] was more than 2500 nM; against TRKA [3], more than 2500 nM; in assay [5] (Table A) it was not above 10 nM; in assay [5] (Table C), not above 10 nM. For the same molecule, the “Selectivity FLT3/JH2 V617F” value with FLT3 is on record as “****** (selectivity of >12500-fold)”. Further, the “Selectivity TRKA/JH2 V617F” value in the assay on TRKA [4] is recorded as “****** (selectivity of >12500-fold)”.
